From ChEMBL document CHEMBL5096241, “Discovery of 3-Aminopyrazole Derivatives as New Potent and Orally Bioavailable AXL Inhibitors” (J Med Chem, 2022)
Active and inactive are the calls of the source. The calls are words filed in the database; no cut-off is given here.

What was measured:
[1] = biological target: T1, Tyrosine-protein kinase receptor UFO (Homo sapiens, UniProt P30530); assay: Inhibition of recombinant AXL (unknown origin) using poly (Glu,Tyr) 4:1 as substrate incubated for 60 mins in presence of ATP by ELISA
T1 sequence (P30530 whole entry): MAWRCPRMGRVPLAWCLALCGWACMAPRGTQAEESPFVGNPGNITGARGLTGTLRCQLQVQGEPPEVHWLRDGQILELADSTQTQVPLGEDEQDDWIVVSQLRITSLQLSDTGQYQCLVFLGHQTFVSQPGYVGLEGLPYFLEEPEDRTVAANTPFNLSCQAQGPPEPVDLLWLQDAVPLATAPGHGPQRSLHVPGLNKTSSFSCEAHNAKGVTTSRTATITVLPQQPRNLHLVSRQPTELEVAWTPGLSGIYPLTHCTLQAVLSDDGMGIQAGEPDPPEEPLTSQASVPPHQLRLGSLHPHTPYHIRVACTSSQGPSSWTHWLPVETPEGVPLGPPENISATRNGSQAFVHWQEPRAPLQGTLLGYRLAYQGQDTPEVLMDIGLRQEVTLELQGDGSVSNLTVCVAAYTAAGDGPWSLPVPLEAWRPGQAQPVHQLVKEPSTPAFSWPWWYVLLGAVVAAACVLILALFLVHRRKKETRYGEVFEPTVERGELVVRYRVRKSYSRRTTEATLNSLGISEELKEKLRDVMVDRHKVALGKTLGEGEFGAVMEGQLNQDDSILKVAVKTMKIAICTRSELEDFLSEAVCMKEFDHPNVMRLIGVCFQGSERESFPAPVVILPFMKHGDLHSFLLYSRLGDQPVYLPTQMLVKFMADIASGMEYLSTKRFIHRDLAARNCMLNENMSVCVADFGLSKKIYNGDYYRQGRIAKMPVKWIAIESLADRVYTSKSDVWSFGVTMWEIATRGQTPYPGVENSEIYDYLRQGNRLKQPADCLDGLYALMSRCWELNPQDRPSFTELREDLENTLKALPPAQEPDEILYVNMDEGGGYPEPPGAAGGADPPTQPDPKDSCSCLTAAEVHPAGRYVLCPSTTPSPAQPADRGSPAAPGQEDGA

[2] = biological target: T1, Tyrosine-protein kinase receptor UFO; assay: Binding affinity to AXL (unknown origin) assessed as dissociation constant by competition binding assay
[3] = biological target: Vascular endothelial growth factor receptor 1 (Homo sapiens, UniProt P17948); assay: Binding affinity to FLT1 (unknown origin) assessed as dissociation constant by competition binding assay
[4] = biological target: T2, Receptor-type tyrosine-protein kinase FLT3 (Homo sapiens, UniProt P36888); assay: Binding affinity to FLT3 (unknown origin) assessed as dissociation constant by competition binding assay
T2 sequence (P36888 whole entry): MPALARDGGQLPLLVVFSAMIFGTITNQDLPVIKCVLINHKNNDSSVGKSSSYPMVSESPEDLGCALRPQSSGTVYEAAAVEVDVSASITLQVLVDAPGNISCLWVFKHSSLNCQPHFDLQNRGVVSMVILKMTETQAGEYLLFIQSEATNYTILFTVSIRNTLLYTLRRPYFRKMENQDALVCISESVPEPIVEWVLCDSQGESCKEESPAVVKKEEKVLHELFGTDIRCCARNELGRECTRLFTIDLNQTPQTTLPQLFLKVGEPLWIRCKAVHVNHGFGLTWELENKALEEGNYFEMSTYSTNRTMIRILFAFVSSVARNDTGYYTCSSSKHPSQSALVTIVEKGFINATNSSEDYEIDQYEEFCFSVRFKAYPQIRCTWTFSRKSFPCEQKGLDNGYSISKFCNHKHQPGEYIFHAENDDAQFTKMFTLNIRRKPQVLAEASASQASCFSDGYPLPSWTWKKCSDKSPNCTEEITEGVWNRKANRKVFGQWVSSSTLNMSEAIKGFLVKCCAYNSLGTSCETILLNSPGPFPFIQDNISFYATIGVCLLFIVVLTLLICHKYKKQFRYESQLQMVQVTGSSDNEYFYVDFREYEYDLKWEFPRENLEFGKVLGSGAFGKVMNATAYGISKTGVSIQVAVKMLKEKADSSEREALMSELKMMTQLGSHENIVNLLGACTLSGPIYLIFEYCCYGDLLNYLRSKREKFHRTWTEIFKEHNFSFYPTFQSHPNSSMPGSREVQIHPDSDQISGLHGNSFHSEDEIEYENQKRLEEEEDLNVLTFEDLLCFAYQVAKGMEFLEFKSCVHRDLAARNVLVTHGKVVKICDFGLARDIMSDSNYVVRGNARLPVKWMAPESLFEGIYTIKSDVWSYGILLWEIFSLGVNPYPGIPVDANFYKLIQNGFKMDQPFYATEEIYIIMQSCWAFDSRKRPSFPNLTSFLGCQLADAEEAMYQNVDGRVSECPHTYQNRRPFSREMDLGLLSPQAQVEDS

[5] = biological target: Vascular endothelial growth factor receptor 3 (Homo sapiens, UniProt P35916); assay: Binding affinity to FLT4 (unknown origin) assessed as dissociation constant by competition binding assay
[6] = biological target: Mast/stem cell growth factor receptor Kit (Homo sapiens, UniProt P10721); assay: Binding affinity to KIT (unknown origin) assessed as dissociation constant by competition binding assay
Chain of Mast/stem cell growth factor receptor Kit (P10721 whole entry): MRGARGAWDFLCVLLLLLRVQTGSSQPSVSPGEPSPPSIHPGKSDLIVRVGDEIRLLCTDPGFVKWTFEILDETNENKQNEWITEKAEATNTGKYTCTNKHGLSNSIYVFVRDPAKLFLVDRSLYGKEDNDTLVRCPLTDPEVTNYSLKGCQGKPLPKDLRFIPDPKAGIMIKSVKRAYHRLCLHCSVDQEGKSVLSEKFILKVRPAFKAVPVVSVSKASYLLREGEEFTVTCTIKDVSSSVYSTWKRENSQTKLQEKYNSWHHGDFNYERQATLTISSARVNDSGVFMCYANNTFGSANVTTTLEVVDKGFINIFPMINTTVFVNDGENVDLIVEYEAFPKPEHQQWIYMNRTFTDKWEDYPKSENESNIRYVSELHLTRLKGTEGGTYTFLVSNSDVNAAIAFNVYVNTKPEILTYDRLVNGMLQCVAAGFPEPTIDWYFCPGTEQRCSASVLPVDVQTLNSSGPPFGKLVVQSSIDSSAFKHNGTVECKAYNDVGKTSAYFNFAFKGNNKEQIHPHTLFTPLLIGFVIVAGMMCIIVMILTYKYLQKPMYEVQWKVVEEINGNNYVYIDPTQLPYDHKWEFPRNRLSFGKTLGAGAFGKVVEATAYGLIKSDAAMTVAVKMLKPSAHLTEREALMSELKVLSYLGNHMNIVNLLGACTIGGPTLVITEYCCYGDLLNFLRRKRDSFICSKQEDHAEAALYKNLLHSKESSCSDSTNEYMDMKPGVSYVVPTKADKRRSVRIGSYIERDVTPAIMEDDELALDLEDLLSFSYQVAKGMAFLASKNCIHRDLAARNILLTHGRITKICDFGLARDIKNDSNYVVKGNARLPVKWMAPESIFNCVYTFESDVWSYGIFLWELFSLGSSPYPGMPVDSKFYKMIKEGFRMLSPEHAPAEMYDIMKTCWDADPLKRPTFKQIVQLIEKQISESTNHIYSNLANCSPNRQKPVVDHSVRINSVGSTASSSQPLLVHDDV

[7] = biological target: Mitogen-activated protein kinase kinase kinase kinase 5 (Homo sapiens, UniProt Q9Y4K4); assay: Binding affinity to MAP4K5 (unknown origin) assessed as dissociation constant by competition binding assay
Chain of Mitogen-activated protein kinase kinase kinase kinase 5 (Q9Y4K4 whole entry): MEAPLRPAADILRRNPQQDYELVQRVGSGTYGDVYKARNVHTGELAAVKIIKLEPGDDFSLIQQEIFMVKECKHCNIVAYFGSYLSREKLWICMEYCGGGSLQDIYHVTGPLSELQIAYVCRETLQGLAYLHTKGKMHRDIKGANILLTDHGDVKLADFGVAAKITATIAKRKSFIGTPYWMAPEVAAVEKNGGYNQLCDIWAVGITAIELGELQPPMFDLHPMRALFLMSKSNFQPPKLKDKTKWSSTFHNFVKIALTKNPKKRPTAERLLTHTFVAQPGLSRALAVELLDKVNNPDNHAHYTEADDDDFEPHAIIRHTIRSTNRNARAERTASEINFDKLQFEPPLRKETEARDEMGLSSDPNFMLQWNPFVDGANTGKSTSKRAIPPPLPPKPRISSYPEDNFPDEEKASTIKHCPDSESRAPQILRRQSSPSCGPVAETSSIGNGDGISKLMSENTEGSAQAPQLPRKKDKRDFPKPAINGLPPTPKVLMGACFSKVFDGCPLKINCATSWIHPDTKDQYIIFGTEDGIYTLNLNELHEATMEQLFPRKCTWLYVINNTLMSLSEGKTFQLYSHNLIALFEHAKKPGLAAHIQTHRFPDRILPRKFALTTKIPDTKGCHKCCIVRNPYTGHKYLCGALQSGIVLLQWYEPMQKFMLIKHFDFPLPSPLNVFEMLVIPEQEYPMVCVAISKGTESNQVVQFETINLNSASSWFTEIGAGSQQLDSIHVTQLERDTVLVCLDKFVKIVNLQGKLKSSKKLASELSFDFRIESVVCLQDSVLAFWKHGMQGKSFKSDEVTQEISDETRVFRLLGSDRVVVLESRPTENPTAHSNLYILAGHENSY

[8] = biological target: Tyrosine-protein kinase Mer (Homo sapiens, UniProt Q12866); assay: Binding affinity to MERTK (unknown origin) assessed as dissociation constant by competition binding assay
Chain of Tyrosine-protein kinase Mer (Q12866 whole entry): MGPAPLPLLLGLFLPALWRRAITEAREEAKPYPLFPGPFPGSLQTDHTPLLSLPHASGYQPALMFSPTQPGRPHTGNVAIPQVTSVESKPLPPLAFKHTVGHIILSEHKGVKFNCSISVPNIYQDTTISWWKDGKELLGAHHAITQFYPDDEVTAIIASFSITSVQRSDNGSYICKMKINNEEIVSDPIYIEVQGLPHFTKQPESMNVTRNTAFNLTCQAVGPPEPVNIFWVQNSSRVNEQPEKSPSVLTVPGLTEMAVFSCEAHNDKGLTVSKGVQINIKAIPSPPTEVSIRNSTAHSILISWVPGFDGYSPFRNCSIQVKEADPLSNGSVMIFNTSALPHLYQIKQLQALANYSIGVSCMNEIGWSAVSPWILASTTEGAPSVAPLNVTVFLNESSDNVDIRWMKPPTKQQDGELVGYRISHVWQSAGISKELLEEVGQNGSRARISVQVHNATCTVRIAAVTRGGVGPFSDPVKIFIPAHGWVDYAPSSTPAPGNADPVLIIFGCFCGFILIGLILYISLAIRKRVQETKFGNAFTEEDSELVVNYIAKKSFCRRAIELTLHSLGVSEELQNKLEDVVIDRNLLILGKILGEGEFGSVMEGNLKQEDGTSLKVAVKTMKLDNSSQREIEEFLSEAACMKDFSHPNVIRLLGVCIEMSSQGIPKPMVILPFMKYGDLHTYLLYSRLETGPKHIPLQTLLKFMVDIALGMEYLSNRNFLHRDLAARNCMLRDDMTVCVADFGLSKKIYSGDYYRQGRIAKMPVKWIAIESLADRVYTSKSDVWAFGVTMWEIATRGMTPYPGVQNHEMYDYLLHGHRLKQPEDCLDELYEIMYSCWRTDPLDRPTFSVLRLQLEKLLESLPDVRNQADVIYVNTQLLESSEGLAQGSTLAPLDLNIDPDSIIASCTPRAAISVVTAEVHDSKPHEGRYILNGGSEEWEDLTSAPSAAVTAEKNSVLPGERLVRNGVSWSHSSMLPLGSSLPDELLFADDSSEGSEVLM

[9] = biological target: Proto-oncogene tyrosine-protein kinase receptor Ret (Homo sapiens, UniProt P07949); assay: Binding affinity to RET (unknown origin) assessed as dissociation constant by competition binding assay
Chain of Proto-oncogene tyrosine-protein kinase receptor Ret (P07949 whole entry): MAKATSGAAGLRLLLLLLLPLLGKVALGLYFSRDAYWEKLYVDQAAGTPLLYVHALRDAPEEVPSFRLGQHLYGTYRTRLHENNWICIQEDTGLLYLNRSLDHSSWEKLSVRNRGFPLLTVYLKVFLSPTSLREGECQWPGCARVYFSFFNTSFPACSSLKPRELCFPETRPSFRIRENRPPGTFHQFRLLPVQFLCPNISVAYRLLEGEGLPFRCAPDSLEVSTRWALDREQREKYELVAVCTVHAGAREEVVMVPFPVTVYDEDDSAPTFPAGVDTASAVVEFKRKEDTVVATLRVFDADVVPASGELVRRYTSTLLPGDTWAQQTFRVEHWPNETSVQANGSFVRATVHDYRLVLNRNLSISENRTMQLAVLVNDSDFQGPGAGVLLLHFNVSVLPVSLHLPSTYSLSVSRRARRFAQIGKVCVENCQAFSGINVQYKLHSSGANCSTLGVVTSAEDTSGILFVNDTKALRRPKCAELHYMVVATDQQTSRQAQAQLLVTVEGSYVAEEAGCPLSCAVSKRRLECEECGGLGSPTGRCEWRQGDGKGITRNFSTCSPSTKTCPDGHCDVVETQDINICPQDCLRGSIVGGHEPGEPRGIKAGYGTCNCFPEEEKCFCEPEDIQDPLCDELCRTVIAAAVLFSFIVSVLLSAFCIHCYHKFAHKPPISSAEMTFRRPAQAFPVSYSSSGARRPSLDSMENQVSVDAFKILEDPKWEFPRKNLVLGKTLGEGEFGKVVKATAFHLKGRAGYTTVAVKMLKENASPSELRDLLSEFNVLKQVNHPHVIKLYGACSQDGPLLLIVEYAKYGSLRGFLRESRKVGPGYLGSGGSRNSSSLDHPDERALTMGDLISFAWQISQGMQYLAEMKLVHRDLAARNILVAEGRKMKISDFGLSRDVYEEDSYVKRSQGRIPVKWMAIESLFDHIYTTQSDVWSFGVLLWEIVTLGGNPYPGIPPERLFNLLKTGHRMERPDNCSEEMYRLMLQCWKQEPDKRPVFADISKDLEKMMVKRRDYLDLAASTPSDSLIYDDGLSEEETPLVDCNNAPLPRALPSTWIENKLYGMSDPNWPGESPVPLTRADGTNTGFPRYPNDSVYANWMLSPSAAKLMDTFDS

[10] = biological target: Macrophage colony-stimulating factor 1 receptor (Homo sapiens, UniProt P07333); assay: Inhibition of CSF1R (unknown origin)
[11] = biological target: T2, Receptor-type tyrosine-protein kinase FLT3; assay: Inhibition of FLT3 (unknown origin)
[12] = biological target: Platelet-derived growth factor receptor beta (Homo sapiens, UniProt P09619); assay: Inhibition of PDGFRB (unknown origin)
[13] = Inhibition of TGF-beta induced cell invasion in human MDA-MB-231 cells at 3 uM incubated for 24 hrs by crystal violet staining based transwell assay relative to control; assay type: functional
MDA-MB-231 = assay: Inhibition of TGF-beta induced epithelial mesenchymal transition process in human metastatic MDA-MB-231 cells assessed as restoration of E-cadherin expression incubated for 3 days by Western blot analysis; assay type: functional, cell-based; conditions: dose 0.11-3 µM, time 3.0 day, DDE = dose-dependent effect
[14] = Inhibition of TGF-beta induced cell invasion in human MDA-MB-231 cells at 0.11 uM incubated for 24 hrs by crystal violet staining based transwell assay relative to control; assay type: functional
[15] = Inhibition of TGF-beta induced cell invasion in human MDA-MB-231 cells at 0.33 uM incubated for 24 hrs by crystal violet staining based transwell assay relative to control; assay type: functional
[16] = Half life in Sprague-Dawley rat at 25 mg/kg, po measured for 96 hrs by LC-MS analysis; assay type: ADME, organism-based; conditions: in vivo
[17] = Tmax in Sprague-Dawley rat at 25 mg/kg, po measured for 96 hrs by LC-MS analysis; assay type: ADME, organism-based; conditions: in vivo
[18] = Cmax in Sprague-Dawley rat at 25 mg/kg, po measured for 96 hrs by LC-MS analysis; assay type: ADME, organism-based; set-up: dose 25 mg/kg, time 96 hrs, route po; conditions: in vivo
[19] = AUClast in Sprague-Dawley rat at 25 mg/kg, po measured for 96 hrs by LC-MS analysis; assay type: ADME, organism-based; set-up: time 96 hrs, dose 25 mg/kg, route po; conditions: in vivo
[20] = Observed AUCinfinity in Sprague-Dawley rat at 5 mg/kg, iv measured for 96 hrs by LC-MS analysis; assay type: ADME, organism-based; set-up: dose 5 mg/kg, time 96 hrs, route iv; conditions: in vivo
[21] = Oral bioavailability in Sprague-Dawley rat at 25 mg/kg measured for 96 hrs by LC-MS analysis; assay type: ADME, organism-based; conditions: in vivo
4T1 [22] = assay: Antitumor activity against metastatic mouse 4T1 cells implanted in BALB/c mouse assessed as tumor growth inhibition at 100 mg/kg, po qd administered for 14 consecutive days and measured every 2 days by electronic caliper method relative to control; assay type: functional; conditions: 4T1, 336 h, time 14 day, read-out: TGI
4T1 [23] = assay: In vivo inhibition of AXL phosphorylation in BALB/c mouse implanted with mouse 4T1 cells administered orally once a day for 14 days; assay type: functional, organism-based; conditions: dose 50-100 mg/kg, route po, time 14.0 day, DDE = dose-dependent effect
4T1 [24] = assay: Antitumor activity against metastatic mouse 4T1 cells implanted in BALB/c mouse assessed as inhibition of liver micrometastasis at 50 to 100 mg/kg, po qd administered for 14 consecutive days by H & E staining based microscopic analysis; assay type: functional, organism-based; conditions: dose 50-100 mg/kg, time 14.0 day
4T1 [25] = assay: Antitumor activity against metastatic mouse 4T1 cells implanted in BALB/c mouse assessed as reduction in number of liver metastases at 50 mg/kg, po qd administered for 14 consecutive days by H & E staining based microscopic analysis (reference value: 24.7 +/- 6.7); assay type: functional; conditions: time 14 day
[26] = Toxicity in BALB/c mouse implanted with mouse 4T1 cells assessed as splenomegaly at 50 to 100 mg/kg, po qd administered for 14 consecutive days; assay type: organism-based; conditions: in vivo, 336 h, dose 50-100 mg/kg, time 14 day

## COc1cc2c(Oc3ccc(Nc4nn(C)cc4C(=O)NC4CCCCC4)cc3F)ccnc2cc1OCCCN1CCOCC1
[1]
  IC50: 0.0016 µM
[2]
  Kd: 0.00026 µM
[3]
  Kd: 0.014 µM
[4]
  Kd: 0.0025 µM
[5]
  Kd: 0.019 µM
[6]
  Kd: 0.0026 µM
[7]
  Kd: > 1 µM
[8]
  Kd: 0.56 µM
[9]
  Kd: 0.6 µM
[10]
  IC50: 0.0267 µM
[11]
  IC50: 0.156 µM
[12]
  IC50: > 10 µM
[13]
  inhibition at 3 µM: 70.4%
MDA-MB-231
  inhibition: Dde
[14]
  inhibition at 0.11 µM: 22.6%
[15]
  inhibition at 0.33 µM: 34.8%
[16]
  half-life: 4.22 h
[17]
  Tmax: 3 h
[18]
  Cmax: 888 ng/mL
[19]
  AUC(0-t) at 96 h: 8410 ng·h/mL
[20]
  AUC(0-inf): 11700 ng·h/mL
[21]
  bioavailability: 14.4%
4T1 [22]
  inhibition in vivo at 100 mg/kg: 95.9%
4T1 [23]
  inhibition: Dde
4T1 [24]
  inhibition: Active
4T1 [25]
  Activity: 3.2
[26]
  Activity: Non-Toxic
